Reference: US12492181B2, “Gem-disubstituted piperidine melanocortin subtype-2 receptor (MC2R) antagonists and uses thereof” (Crinetics Pharmaceuticals, Inc., priority 2019, dated 2025)

Target: T1, hMC2 receptor (crude hMC2R membranes from CRE-bla-CHO-K1 cells stably expressing hMC2 receptor and hMRAP accessory protein) (Homo sapiens, UniProt Q01718)
T1 construct: crude membrane fractions
Experiment: hMC2 membrane binding assay ([125I]ACTH (1-39) Tyr23, SPA)
Conditions: displacement of 0.2 nM [125I]ACTH (1-39) Tyr23 from hMC2R membranes, 1.5 hours at room temperature; read-out: MC2R binding potency
How it was run: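 Ki values come from non-linear regression of SPA scintillation counts, with compounds displacing [125I]ACTH(1-39) Tyr23. Membranes come from CRE-bla-CHO-K1 cells stably expressing hMC2 receptor together with hMRAP. They are preincubated with WGA-coated PVT SPA beads in 50 mM HEPES pH 7.4 with 0.20% BSA, Mg2+, Ca2+ and protease inhibitors.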

T1 sequence (Q01718 whole entry): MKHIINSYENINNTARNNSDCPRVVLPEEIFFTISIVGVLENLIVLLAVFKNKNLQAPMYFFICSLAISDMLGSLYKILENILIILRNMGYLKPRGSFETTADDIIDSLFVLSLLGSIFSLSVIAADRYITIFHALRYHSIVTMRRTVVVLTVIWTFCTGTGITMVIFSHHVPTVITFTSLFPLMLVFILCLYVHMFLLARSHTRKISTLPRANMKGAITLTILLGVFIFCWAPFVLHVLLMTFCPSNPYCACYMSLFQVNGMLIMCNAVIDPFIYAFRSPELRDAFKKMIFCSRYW
T1 sequence (Q8TCY5 whole entry partner): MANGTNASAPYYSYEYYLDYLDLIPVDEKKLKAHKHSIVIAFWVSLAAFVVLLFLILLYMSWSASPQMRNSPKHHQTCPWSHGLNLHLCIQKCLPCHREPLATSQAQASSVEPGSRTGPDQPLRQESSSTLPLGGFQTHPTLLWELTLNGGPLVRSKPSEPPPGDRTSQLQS

Structure (SMILES)	Ki [nM]
Cc1occc1-c1ccc(C2(C(=O)N[C@H]3CCN(C)C3)CCN(c3ccc(C(F)(F)F)cc3C#N)CC2)cn1 [Compound 1-120, 1-[2-cyano-4-(trifluoromethyl)phenyl]-4-[6-(2-methylfuran-3-yl)pyridin-3-yl]-N-[(3S)-1-methylpyrrolidin-3-yl]piperidine-4-carboxamide]	< 10
CN1CC[C@H](NC(=O)C2(c3ccc(-c4ccccc4C4CC4)nc3)CCN(c3ccc(C(F)(F)F)cc3C#N)CC2)C1 [Compound 1-121, 1-[2-cyano-4-(trifluoromethyl)phenyl]-4-[6-(2-cyclopropylphenyl)pyridin-3-yl]-N-[(3S)-1-methylpyrrolidin-3-yl]piperidine-4-carboxamide]	< 10
Cc1sccc1-c1ccc(C2(C(=O)N[C@H]3CCN(C)C3)CCN(c3ccc(C(F)(F)F)cc3C#N)CC2)cn1 [Compound 1-122, 1-[2-cyano-4-(trifluoromethyl)phenyl]-N-[(3S)-1-methylpyrrolidin-3-yl]-4-[6-(2-methylthiophen-3-yl)pyridin-3-yl]piperidine-4-carboxamide]	< 10
CCOc1ccccc1-c1ncc(C2(C(=O)N[C@@H]3CCN(C)C3)CCN(c3ccc(C(F)(F)F)cc3C#N)CC2)cc1F [Compound 1-123, 1-[2-cyano-4-(trifluoromethyl)phenyl]-4-[6-(2-ethoxyphenyl)-5-fluoropyridin-3-yl]-N-[(3R)-1-methylpyrrolidin-3-yl]piperidine-4-carboxamide]	< 10
CCOc1ccccc1-c1ncc(C2(C(=O)N[C@H]3CCN(C)C3)CCN(c3ccc(C(F)(F)F)cc3C#N)CC2)cc1F [Compound 1-124, 1-[2-cyano-4-(trifluoromethyl)phenyl]-4-[6-(2-ethoxyphenyl)-5-fluoropyridin-3-yl]-N-[(3S)-1-methylpyrrolidin-3-yl]piperidine-4-carboxamide]	< 10
CCOc1ccccc1-c1ncc(C2(C(=O)N[C@H]3CCN(C)C3)CCN(c3ccc(C(F)(F)F)nc3C#N)CC2)cc1F [Compound 1-125, 1-[2-cyano-6-(trifluoromethyl)pyridin-3-yl]-4-[6-(2-ethoxyphenyl)-5-fluoropyridin-3-yl]-N-[(3S)-1-methylpyrrolidin-3-yl]piperidine-4-carboxamide]	< 10
COc1ccccc1-c1ncc(C2(C(=O)N[C@@H]3CCN(C)C3)CCN(c3ccc(C(F)(F)F)cc3C#N)CC2)cc1F [Compound 1-126, 1-[2-cyano-4-(trifluoromethyl)phenyl]-4-[5-fluoro-6-(2-methoxyphenyl)pyridin-3-yl]-N-[(3R)-1-methylpyrrolidin-3-yl]piperidine-4-carboxamide]	< 10
COc1ccccc1-c1ncc(C2(C(=O)N[C@H]3CCN(C)C3)CCN(c3ccc(C(F)(F)F)cc3C#N)CC2)cc1F [Compound 1-127, 1-[2-cyano-4-(trifluoromethyl)phenyl]-4-[5-fluoro-6-(2-methoxyphenyl)pyridin-3-yl]-N-[(3S)-1-methylpyrrolidin-3-yl]piperidine-4-carboxamide]	< 10
COc1ccccc1-c1ncc(C2(C(=O)N[C@H]3CCN(C)C3)CCN(c3ccc(C(F)(F)F)nc3C#N)CC2)cc1F [Compound 1-128, 1-[2-cyano-6-(trifluoromethyl)pyridin-3-yl]-4-[5-fluoro-6-(2-methoxyphenyl)pyridin-3-yl]-N-[(3S)-1-methylpyrrolidin-3-yl]piperidine-4-carboxamide]	< 10
CN1CC[C@@H](NC(=O)C2(c3ccc(-c4cccc(F)c4O)nc3)CCN(c3ccc(C(F)(F)F)cc3C#N)CC2)C1 [Compound 1-129, 1-[2-cyano-4-(trifluoromethyl)phenyl]-4-[6-(3-fluoro-2-hydroxyphenyl)pyridin-3-yl]-N-[(3R)-1-methylpyrrolidin-3-yl]piperidine-4-carboxamide]	10 to 100
COc1ccc(C)cc1-c1ccc(C2(C(=O)N[C@@H]3CCN(C)C3)CCN(c3ccc(C(F)(F)F)cc3C#N)CC2)cn1 [Compound 1-130, 1-[2-cyano-4-(trifluoromethyl)phenyl]-4-[6-(2-methoxy-5-methylphenyl)pyridin-3-yl]-N-[(3R)-1-methylpyrrolidin-3-yl]piperidine-4-carboxamide]	< 10
COc1ncccc1-c1ncc(C2(C(=O)N[C@@H]3CCN(C)C3)CCN(c3ccc(C(F)(F)F)cc3C#N)CC2)cc1F [Compound 1-131, 1-[2-cyano-4-(trifluoromethyl)phenyl]-4-{3-fluoro-2′-methoxy-[2,3′-bipyridin]-5-yl}-N-[(3R)-1-methylpyrrolidin-3-yl]piperidine-4-carboxamide]	< 10
COc1ncccc1-c1ncc(C2(C(=O)N[C@H]3CCN(C)C3)CCN(c3ccc(C(F)(F)F)cc3C#N)CC2)cc1F [Compound 1-132, 1-[2-cyano-4-(trifluoromethyl)phenyl]-4-{3-fluoro-2′-methoxy-[2,3′-bipyridin]-5-yl}-N-[(3S)-1-methylpyrrolidin-3-yl]piperidine-4-carboxamide]	< 10
COc1ncccc1-c1ncc(C2(C(=O)N[C@H]3CCN(C)C3)CCN(c3ccc(C(F)(F)F)nc3C#N)CC2)cc1F [Compound 1-133, 1-[2-cyano-6-(trifluoromethyl)pyridin-3-yl]-4-{3-fluoro-2′-methoxy-[2,3′-bipyridin]-5-yl}-N-[(3S)-1-methylpyrrolidin-3-yl]piperidine-4-carboxamide]	< 10
CCOc1ccccc1-c1ccc(C2(C(=O)N[C@H]3CCN(C)C3)CCN(c3ccc(Cl)cc3C#N)CC2)nn1 [Compound 1-134, 1-(4-chloro-2-cyanophenyl)-4-[6-(2-ethoxyphenyl)pyridazin-3-yl]-N-[(3S)-1-methylpyrrolidin-3-yl]piperidine-4-carboxamide]	< 10
CCOc1ccccc1-c1ccc(C2(C(=O)NC3CN(C)C3)CCN(c3ccc(Cl)cc3C#N)CC2)nn1 [Compound 1-135, 1-(4-chloro-2-cyanophenyl)-4-[6-(2-ethoxyphenyl)pyridazin-3-yl]-N-(1-methylazetidin-3-yl)piperidine-4-carboxamide]	< 10
CCOc1ccccc1-c1ccc(C2(C(=O)NC3CN(C)C3)CCN(c3ccc(C(F)(F)F)cc3C#N)CC2)nn1 [Compound 1-136, 1-[2-cyano-4-(trifluoromethyl)phenyl]-4-[6-(2-ethoxyphenyl)pyridazin-3-yl]-N-(1-methylazetidin-3-yl)piperidine-4-carboxamide]	< 10
CN1CC[C@@H](NC(=O)C2(c3ccc(-c4ccccc4CC#N)nc3)CCN(c3ccc(C(F)(F)F)cc3C#N)CC2)C1 [Compound 1-137, 1-[2-cyano-4-(trifluoromethyl)phenyl]-4-{6-[2-(cyanomethyl)phenyl]pyridin-3-yl}-N-[(3R)-1-methylpyrrolidin-3-yl]piperidine-4-carboxamide]	10 to 100

The next lines start with the values.

Ki [nM]	Structure (SMILES)
< 10	Cc1cscc1-c1ccc(C2(C(=O)N[C@@H]3CCN(C)C3)CCN(c3ccc(C(F)(F)F)cc3C#N)CC2)cn1 [Compound 1-138, 1-[2-cyano-4-(trifluoromethyl)phenyl]-N-[(3R)-1-methylpyrrolidin-3-yl]-4-[6-(4-methylthiophen-3-yl)pyridin-3-yl]piperidine-4-carboxamide]
< 10	CCOc1ncccc1-c1ccc(C2(C(=O)N[C@H]3CCN(C)C3)CCN(c3ccc(Cl)cc3C#N)CC2)nn1 [Compound 1-139, 1-(4-chloro-2-cyanophenyl)-4-[6-(2-ethoxypyridin-3-yl)pyridazin-3-yl]-N-[(3S)-1-methylpyrrolidin-3-yl]piperidine-4-carboxamide]
< 10	CCOc1ncccc1-c1ccc(C2(C(=O)NC3CN(C)C3)CCN(c3ccc(C(F)(F)F)cc3C#N)CC2)nn1 [Compound 1-140, 1-[2-cyano-4-(trifluoromethyl)phenyl]-4-[6-(2-ethoxypyridin-3-yl)pyridazin-3-yl]-N-(1-methylazetidin-3-yl)piperidine-4-carboxamide]
< 10	CCOc1ncccc1-c1ccc(C2(C(=O)N[C@H]3CCN(C)C3)CCN(c3ccc(C(F)(F)F)cc3Cl)CC2)cn1 [Compound 1-141, 1-[2-chloro-4-(trifluoromethyl)phenyl]-4-{2′-ethoxy-[2,3′-bipyridin]-5-yl}-N-[(3S)-1-methylpyrrolidin-3-yl]piperidine-4-carboxamide]
< 10	COc1ncccc1-c1ccc(C2(C(=O)N[C@H]3CCN(C)C3)CCN(c3ccc(C(F)(F)F)cc3Cl)CC2)cn1 [Compound 1-142, 1-[2-chloro-4-(trifluoromethyl)phenyl]-4-{2′-methoxy-[2,3′-bipyridin]-5-yl}-N-[(3S)-1-methylpyrrolidin-3-yl]piperidine-4-carboxamide]
< 10	CN1CC[C@H](NC(=O)C2(c3ccc(-c4ccc[nH]4)nc3)CCN(c3ccc(C(F)(F)F)cc3C#N)CC2)C1 [Compound 1-143, 1-[2-cyano-4-(trifluoromethyl)phenyl]-N-[(3S)-1-methylpyrrolidin-3-yl]-4-[6-(1H-pyrrol-2-yl)pyridin-3-yl]piperidine-4-carboxamide]
< 10	COc1ccccc1-c1ccc(C2(C(=O)N[C@H]3CCN(C)C3)CCN(c3ccc(C(F)(F)F)cc3Cl)CC2)cn1 [Compound 1-144, 1-[2-chloro-4-(trifluoromethyl)phenyl]-4-[6-(2-methoxyphenyl)pyridin-3-yl]-N-[(3S)-1-methylpyrrolidin-3-yl]piperidine-4-carboxamide]
< 10	CCOc1ccccc1-c1ccc(C2(C(=O)N[C@H]3CCN(C)C3)CCN(c3ccc(C(F)(F)F)cc3F)CC2)cn1 [Compound 1-145, 4-[6-(2-ethoxyphenyl)pyridin-3-yl]-1-[2-fluoro-4-(trifluoromethyl)phenyl]-N-[(3S)-1-methylpyrrolidin-3-yl]piperidine-4-carboxamide]
< 10	CC(=O)c1sccc1-c1ccc(C2(C(=O)N[C@H]3CCN(C)C3)CCN(c3ccc(C(F)(F)F)cc3C#N)CC2)cn1 [Compound 1-146, 4-[6-(2-acetylthiophen-3-yl)pyridin-3-yl]-1-[2-cyano-4-(trifluoromethyl)phenyl]-N-[(3S)-1-methylpyrrolidin-3-yl]piperidine-4-carboxamide]
